This note sets out measurements from ChEMBL document CHEMBL1781971, “Discovery of 5-(arenethynyl) hetero-monocyclic derivatives as potent inhibitors of BCR-ABL including the T315I gatekeeper mutant” (Bioorg Med Chem Lett, 2011).

A short description of test [1]: cells. The note with it: Mus musculus, BaF3.
Description: Antiproliferative activity against mouse BA/F3 cells expressing wild type BCR-ABL
For test [2], the target named is Tyrosine-protein kinase ABL1 (Homo sapiens, UniProt P00519, T315I).
A short description of test [3]: cells. The note with it: Mus musculus, BaF3. This is another data set of the same source.
The target of test [4] is Tyrosine-protein kinase ABL1 (Homo sapiens, UniProt P00519).
Test [5] can be described thus: cells. The note with it: Mus musculus, BaF3. This is another data set of the same source.
Description: Antiproliferative activity against BCR-ABL-negative parental mouse BA/F3 cells

pIC50: −log10 of the molar value.

By pIC50 is commonly meant the negative decadic logarithm of the IC50, by convention in mol/L. A low value points to a large IC50. In the case of `Cc1ccc(C(=O)Nc2ccc(CN3CCN(C)CC3)c(C(F)(F)F)c2)cc1C#Cc1cccnc1`, the pIC50 in the test “cells [1]” was 8.39; in test [2], 6.91; in the test “cells [3]”, 7.34; in test [4], 7.39; in the test “cells [5]”, 5.69.

Regarding `CC(=O)Nc1ccc(C#Cc2cc(C(=O)Nc3ccc(CN4CCN(C)CC4)c(C(F)(F)F)c3)ccc2C)cn1`, the pIC50 is 8.66 in “cells [1]”; 6.92 in test [2]; 8.02 in “cells [3]”; 7.74 in test [4]; 5.75 in the test “cells [5]”.

For `CCC(=O)Nc1ccc(C#Cc2cc(C(=O)Nc3ccc(CN4CCN(C)CC4)c(C(F)(F)F)c3)ccc2C)cn1`, the pIC50 in “cells [1]” was 8.60; in test [2], 6.98; in the test “cells [3]”, 7.87; in test [4], 7.54; in the test “cells [5]”, 5.78.

As for `Cc1ccc(C(=O)Nc2ccc(CN3CCN(C)CC3)c(C(F)(F)F)c2)cc1C#Cc1ccc(C(N)=O)nc1`, the pIC50 in the test “cells [1]” is 8.59; in test [2] it was 6.49; in the test “cells [3]”, 7.74; in test [4], 7.31; in the test “cells [5]”, 5.99.

Regarding `Cc1ccc(C(=O)Nc2ccc(CN3CCN(C)CC3)c(C(F)(F)F)c2)cc1C#Cc1cnc(NC2CC2)nc1`, the pIC50 is 6.71 in “cells [1]”; 6.34 in test [2]; 6.28 in the test “cells [3]”; 7.30 in test [4]; 6.22 in “cells [5]”.

For the molecule `Cc1ccc(C(=O)Nc2ccc(CN3CCN(C)CC3)c(C(F)(F)F)c2)cc1C#Cc1cnc[nH]1`, the pIC50 in “cells [1]” is 6.14; in test [2] it was 5.43; in “cells [3]”, 5.24; in test [4], 6.00; in “cells [5]” it was 5.18.

For `Cc1ccc(C(=O)Nc2ccc(CN3CCN(C)CC3)c(C(F)(F)F)c2)cc1C#Cc1cncn1C`, the pIC50 in “cells [1]” is 7.37; in test [2], 6.26; in the test “cells [3]” it was 6.15; in test [4] it was 6.89; in the test “cells [5]”, 5.25.

As to `Cc1ccc(C(=O)Nc2ccc(CN3CCN(C)CC3)c(C(F)(F)F)c2)cc1C#Cc1cnc(C)n1C`, the pIC50 was 8.07 in the test “cells [1]”; 6.44 in test [2]; 7.16 in the test “cells [3]”; 7.14 in test [4]; 5.75 in the test “cells [5]”.

`CNC(=O)c1ncc(C#Cc2cc(C(=O)Nc3ccc(CN4CCN(C)CC4)c(C(F)(F)F)c3)ccc2C)n1C`: the pIC50 in “cells [1]” was 8.77; in test [2], 7.74; in the test “cells [3]” it was 8.40; in test [4] it was 7.76; in “cells [5]”, 5.80.

In the case of `Cc1ccc(C(=O)Nc2ccc(CN3CCN(C)CC3)c(C(F)(F)F)c2)cc1C#Cc1cnc(C(=O)NCCO)n1C`, the pIC50 was 8.41 in the test “cells [1]”; 6.52 in test [2]; 7.19 in the test “cells [3]”; 7.26 in test [4]; 5.80 in the test “cells [5]”.

`COCCN1CCN(Cc2ccc(NC(=O)c3ccc(C)c(C#Cc4cnc(C(N)=O)n4C)c3)cc2C(F)(F)F)CC1`: the pIC50 in “cells [1]” is 9.19; in test [2] it was 6.85; in “cells [3]”, 7.97; in test [4], 8.32; in the test “cells [5]”, 5.62.

As to `Cc1ccc(C(=O)Nc2ccc(CN3CCN(CC(=O)O)CC3)c(C(F)(F)F)c2)cc1C#Cc1cnc(C(N)=O)n1C`, the pIC50 in the test “cells [1]” was 8.12; in test [2], 6.97; in “cells [3]”, 7.19; in test [4] it was 8.37; in the test “cells [5]”, 5.00.

In the case of `Cc1ccc(C(=O)Nc2ccc(CN3CCN(C)CC3)c(C(F)(F)F)c2)cc1C#Cc1cnc(N)s1`, the pIC50 in the test “cells [1]” was 8.55; in test [2], 6.86; in “cells [3]”, 7.76; in test [4] it was 7.54; in the test “cells [5]”, 5.90.

On to `CC(=O)Nc1ncc(C#Cc2cc(C(=O)Nc3ccc(CN4CCN(C)CC4)c(C(F)(F)F)c3)ccc2C)s1`, for which the pIC50 was 9.17 in “cells [1]”; 7.57 in test [2]; 8.26 in the test “cells [3]”; 7.92 in test [4]; 7.01 in the test “cells [5]”.
